Experimental data reported in US20220324835A1 (Nurix Therapeutics, Inc., priority 2018, published 2022).
Read-outs that look alike come from different tables or passages of the source.

What was measured:
primary human NK cells = experiment: NK cell activation assessed by cytokine secretion (coculture with K562 NucRed target cells); type: cell-based; conditions: for fold induction at 0.625 µM: 0.625 μM compound; for fold induction at 2.5 µM: 2.5 μM compound
Outline: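 Read-out is cytokine secretion (IFNγ, TNFα, MIP1β; ELISA or Luminex) as fold over coculture without inhibitor, >2.0-fold taken as positive. Donor NK cells, IL-2 primed (60 ng/mL) overnight, received compound 1 h ahead (e.g. 0.1–10 μM, DMSO <0.1%) and were mixed 6 h with K562 NucRed targets at e.g. 5:1, 1:1, 1:5.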

T-cell = experiment: CD25 cell surface staining on T-cells stimulated with anti-CD3 antibody alone (Biological Example 2); type: cell-based; conditions: primary human total T-cells, baseline = anti-CD3/anti-CD28 stimulated cells without inhibitor, read-out: CD25 staining, Anti-CD3 stimulation, fold change over baseline; for fold induction at 1 µM: 1 μM compound; for fold induction at 8 µM: 8 μM compound
T-cells = experiment: In vivo activity: CD25 expression on CD4+ or CD8+ T-cells of mice stimulated with anti-CD3 antibody; conditions: 2 μg anti-CD3 antibody, 24 hours
Outline: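 C57BL/6 or BALB/c mice dosed with inhibitor (IV, IP, SC or PO, e.g. BID or TID), then stimulated with 2 μg anti-CD3 antibody. Plasma IL-2, IFNγ, TNFα at 8 h and CD25 on CD4+/CD8+ T-cells by flow cytometry at 24 h; fold change over vehicle plus anti-CD3, binned A–E.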

[1] = K562, NK cells cocultured with K562 NucRed, 1:1 E/T, read-out: IFNγ secretion, fold change over baseline
[2] = K562, NK cells cocultured with K562 NucRed, 1:1 E/T, read-out: TNFα secretion, fold change over baseline
[3] = K562, NK cells cocultured with K562 NucRed, 1:1 E/T, 10 μM compound, read-out: IFNγ secretion, fold change over baseline
[4] = K562, NK cells cocultured with K562 NucRed, 1:1 E/T, 10 μM compound, read-out: TNFα secretion, fold change over baseline
[5] = K562, 1:1 E/T, read-out: IFNγ secretion
[6] = K562, 1:1 E/T, read-out: MIP1β secretion
[7] = K562, 1:1 E/T, read-out: TNFα secretion
[8] = K562, 1:1 E/T, 10 μM, read-out: IFNγ secretion
[9] = K562, 1:1 E/T, 10 μM, read-out: MIP1β secretion
[10] = K562, 1:1 E/T, 10 μM, read-out: TNFα secretion
[11] = K562, 5:1 E/T, read-out: IFNγ secretion
[12] = K562, 5:1 E/T, read-out: MIP1β secretion
[13] = K562, 5:1 E/T, read-out: TNFα secretion
[14] = K562, 5:1 E/T, 10 μM, read-out: IFNγ secretion
[15] = K562, 5:1 E/T, 10 μM, read-out: MIP1β secretion
[16] = K562, 5:1 E/T, 10 μM, read-out: TNFα secretion

| Structure (SMILES) | fold induction at 0.625 µM (primary human NK cells; [1]) | fold induction at 0.625 µM (primary human NK cells; [2]) | fold induction at 2.5 µM (primary human NK cells; [1]) | fold induction at 2.5 µM (primary human NK cells; [2]) | fold induction at 10 µM (primary human NK cells; [3]) | fold induction at 10 µM (primary human NK cells; [4]) | fold induction at 1 µM (T-cell) | fold induction at 8 µM (T-cell) | CD4+ T-cell % CD25+ (T-cells; 90 mpk PO BID) | CD8+ T-cell % CD25+ (T-cells; 90 mpk PO BID) | CD4+ T-cell % CD25+ (T-cells; 135 mpk PO BID) | CD8+ T-cell % CD25+ (T-cells; 135 mpk PO BID) | CD4+ T-cell % CD25+ (T-cells; 180 mpk PO BID) | CD8+ T-cell % CD25+ (T-cells; 180 mpk PO BID) | other results |
| --- | --- | --- | --- | --- | --- | --- | --- | --- | --- | --- | --- | --- | --- | --- | --- |
| C[C@H](c1cc2c(c(C(F)(F)F)c1)CN(c1cccc(C3(Cc4nncn4C)COC3)c1)C2=O)N1CC[C@H](F)C1 [Compound 413, 6-((R)-1-((S)-3-fluoropyrrolidin-1-yl)ethyl)-2-(3-(3-((4-methyl-4H-1,2,4-triazol-3-yl)methyl)oxetan-3-yl)phenyl)-4-(trifluoromethyl)isoindolin-1-one] | 2.01 to 5 | 2.01 to 5 | > 5 | 2.01 to 5 | > 5 | 2.01 to 5 | > 1 | > 1 | D (D indicates 1.00-1.50) | D (D indicates 1.00-1.50) | D (D indicates 1.00-1.50) | D (D indicates 1.00-1.50) | D (D indicates 1.00-1.50) | D (D indicates 1.00-1.50) |  |
| Cn1cnnc1CC1(c2cccc(NC(=O)c3cc(CN4CCC5(CC5)C4)cc(C4CC4)n3)c2)COC1 [Compound 519, 4-((5-azaspiro[2.4]heptan-5-yl)methyl)-6-cyclopropyl-N-(3-(3-((4-methyl-4H-1,2,4-triazol-3-yl)methyl)oxetan-3-yl)phenyl)picolinamide] | > 5 | > 5 | > 5 | 1.01 to 2 | > 5 | 2.01 to 5 | > 1 |  | A (A indicates >2.50) | D (D indicates 1.00-1.50) |  |  | A (A indicates >2.50) | C (C indicates 1.51-2.00) | CD4+ T-cell % CD25+ (T-cells; 45 mpk PO BID): C (C indicates 1.51-2.00); CD8+ T-cell % CD25+ (T-cells; 45 mpk PO BID): D (D indicates 1.00-1.50) |
| Cn1cnnc1C(F)(F)[C@](C)(F)c1cccc(N2Cc3c(cc(CN4CC[C@H](F)C4)cc3C(F)(F)F)C2=O)c1 [Compound 447, 6-(((S)-3-fluoropyrrolidin-1-yl)methyl)-2-(3-((R)-1,1,2-trifluoro-1-(4-methyl-4H-1,2,4-triazol-3-yl)propan-2-yl)phenyl)-4-(trifluoromethyl)isoindolin-1-one] |  |  |  |  |  |  | > 1 | > 1 | D (D indicates 1.00-1.50) | E (E indicates <1.00) | D (D indicates 1.00-1.50) | E (E indicates <1.00) | C (C indicates 1.51-2.00) | D (D indicates 1.00-1.50) | fold induction at 1 µM (primary human NK cells; [5]): 2.01 to 5; fold induction at 1 µM (primary human NK cells; [6]): < 1; fold induction at 1 µM (primary human NK cells; [7]): 2.01 to 5; fold induction at 10 µM (primary human NK cells; [8]): > 5; fold induction at 10 µM (primary human NK cells; [9]): 1.01 to 2; fold induction at 10 µM (primary human NK cells; [10]): 2.01 to 5; fold induction at 1 µM (primary human NK cells; [11]): > 5; fold induction at 1 µM (primary human NK cells; [12]): 1.01 to 2; fold induction at 1 µM (primary human NK cells; [13]): 2.01 to 5; fold induction at 10 µM (primary human NK cells; [14]): > 5; fold induction at 10 µM (primary human NK cells; [15]): 2.01 to 5; fold induction at 10 µM (primary human NK cells; [16]): > 5 |
| Cn1cnnc1C(F)(F)[C@](C)(F)c1cccc(N2Cc3c(cc(CN4CCC(F)(F)C4)cc3C(F)(F)F)C2=O)c1 [Compound 448, (R)-6-((3,3-difluoropyrrolidin-1-yl)methyl)-2-(3-(1,1,2-trifluoro-1-(4-methyl-4H-1,2,4-triazol-3-yl)propan-2-yl)phenyl)-4-(trifluoromethyl)isoindolin-1-one] |  |  |  |  |  |  | 0.801 to 1 | > 1 | D (D indicates 1.00-1.50) | E (E indicates <1.00) | D (D indicates 1.00-1.50) | E (E indicates <1.00) | D (D indicates 1.00-1.50) | E (E indicates <1.00) | fold induction at 1 µM (primary human NK cells; [5]): 1.01 to 2; fold induction at 1 µM (primary human NK cells; [6]): 1.01 to 2; fold induction at 1 µM (primary human NK cells; [7]): 1.01 to 2; fold induction at 10 µM (primary human NK cells; [8]): > 5; fold induction at 10 µM (primary human NK cells; [9]): 2.01 to 5; fold induction at 10 µM (primary human NK cells; [10]): 2.01 to 5; fold induction at 1 µM (primary human NK cells; [11]): 1.01 to 2; fold induction at 1 µM (primary human NK cells; [12]): 1.01 to 2; fold induction at 1 µM (primary human NK cells; [13]): 1.01 to 2; fold induction at 10 µM (primary human NK cells; [14]): > 5; fold induction at 10 µM (primary human NK cells; [15]): 2.01 to 5; fold induction at 10 µM (primary human NK cells; [16]): 2.01 to 5 |
| Cn1cnnc1CC1(c2cccc(N3Cc4c(cc(CN5CC(F)C5)cc4C(F)(F)F)C3=O)c2)COC1 [Compound 415, 6-((3-fluoroazetidin-1-yl)methyl)-2-(3-(3-((4-methyl-4H-1,2,4-triazol-3-yl)methyl)oxetan-3-yl)phenyl)-4-(trifluoromethyl)isoindolin-1-one] | 2.01 to 5 | 1.01 to 2 | 2.01 to 5 | 2.01 to 5 | > 5 | 2.01 to 5 | > 1 | > 1 | D (D indicates 1.00-1.50) | D (D indicates 1.00-1.50) | D (D indicates 1.00-1.50) | E (E indicates <1.00) | D (D indicates 1.00-1.50) | E (E indicates <1.00) |  |
| C[C@@H](c1cc2c(c(C(F)(F)F)c1)CN(c1cccc(C3(Cc4nncn4C)COC3)c1)C2=O)N1CC[C@H](F)C1 [Compound 412, 6-((S)-1-((S)-3-fluoropyrrolidin-1-yl)ethyl)-2-(3-(3-((4-methyl-4H-1,2,4-triazol-3-yl)methyl)oxetan-3-yl)phenyl)-4-(trifluoromethyl)isoindolin-1-one] | 2.01 to 5 | 2.01 to 5 | 2.01 to 5 | 2.01 to 5 | > 5 | 2.01 to 5 | > 1 | > 1 | D (D indicates 1.00-1.50) | D (D indicates 1.00-1.50) | C (C indicates 1.51-2.00) | D (D indicates 1.00-1.50) | B (B indicates 2.01-2.50) | D (D indicates 1.00-1.50) |  |
| Cn1cnnc1CC1(c2cccc(N3Cc4c(cc(CN5CCC6(CC6)C5)cc4C(F)(F)F)C3=O)c2)COC1 [Compound 520, 6-((5-azaspiro[2.4]heptan-5-yl)methyl)-2-(3-(3-((4-methyl-4H-1,2,4-triazol-3-yl)methyl)oxetan-3-yl)phenyl)-4-(trifluoromethyl)isoindolin-1-one] | > 5 | 2.01 to 5 | > 5 | > 5 | > 5 | 2.01 to 5 | > 1 |  | D (D indicates 1.00-1.50) | D (D indicates 1.00-1.50) | C (C indicates 1.51-2.00) | D (D indicates 1.00-1.50) | B (B indicates 2.01-2.50) | D (D indicates 1.00-1.50) | CD4+ T-cell % CD25+ (T-cells; 45 mpk PO BID): D (D indicates 1.00-1.50); CD8+ T-cell % CD25+ (T-cells; 45 mpk PO BID): D (D indicates 1.00-1.50) |
